Assay results published in patent publication US9006205B2, “Antisense oligonucleotides against neutral sphingomyelinase and neutral sphingomyelinase inhibitor GW4869 for degenerative neurological disorders” (Rush University Medical Center, priority 2011, dated 2015).

Key:
A-SMase = A-SMase activity in vivo in the cortex after microinjection; parameters: species or system C57/BL6 mice; settings: pre-microinjection of 1 μg oligonucleotide 24 h before 1 μg fibrillar Aβ1-42
Protocol: (§1) Activities of SMase(s) were assayed as described by. Briefly, after treatment, the cells were washed with PBS, harvested in PBS, divided into two halves, and centrifuged. The fraction for N-SMase was resuspended in buffer A (100 mM Tris-HCl, pH 7.4, 0.1% Triton X-100, 1 mM EDTA, and protease inhibitors), and the cell suspension was sonicated and centrifuged at 500×g at 4° C. for 5 min. The supernatant was used as the enzyme source for N-SMase. The reaction mixture contained enzyme preparation in buffer A containing 5 nmol of [^14C] sphingomyelin, 5 nmol of phosphatidylserine, 5 mM dithiothreitol, and 5 mM MgC¾ in a final volume of 100 μl. Similarly, the fraction for A-SMase was resuspended in buffer B (100 mM sodium acetate, pH 5.0, 0.1% Triton X-100, and protease inhibitors). The cell suspension was sonicated and centrifuged. The supernatant was used as the source of A-SMase. The activity of A-SMase was measured in a 100-μl reaction mixture consisting of the enzyme preparation in buffer B and 5 nmol of [^14C] sphingomyelin. The enzyme reaction was initiated by the addition of 50 μl of substrate and stopped by the addition of 1.5 ml of chloroform:methanol (2:1, v/v) and 0.2 ml of water. After vortexing and phase separation, the aqueous phase was removed for counting.
(§2) Control mice received saline injection. At indicated time points, cortex was dissected out and divided into two halves—one half for measuring activities of N-SMase (FIG. 7B) and A-SMase (FIG. 7C) and the other for assaying ceramide (FIG. 7D). Control (saline—6 h) group served as 100%, and data from other groups were expressed as percentage of control. Results are mean+SD of five different mice (n=5). ^ap<0.05 vs saline—6 h.

iNOS, GFAP and CD11b = test: Immunofluorescence of iNOS, GFAP and CD11b in the cortex of Aβ-microinjected mice; type: in vivo, C57/BL6 mice; settings: 1 μg oligonucleotide 24 h before Aβ; at both 6 h and 24 h of microinjection
Protocol: […], mice were perfused with 4% paraformaldehyde and their brains were processed for immunohistochemical studies. For double labeling of GFAP with iNOS, sections (6 μm) were incubated with polyclonal anti-GFAP (GFAP: 1000 dilution; Calbiochem) and anti-iNOS (iNOS: 1000 dilution; Calbiochem) for 24 h at 4° C. After three washes in PBST (15 min each), slides were further incubated with Cy5 and Cy2 (Jackson ImmunoResearch Laboratories, Inc.) secondary antibodies for 2 h at room temperature. For negative controls, a set of tissue sections was incubated under similar conditions without the primary antibodies. The samples were mounted and observed under a Bio-Rad MRC1024ES confocal laser scanning microscope.
After 6 h of Aβ microinjection, mice were perfused and double immunofluorescence for GFAP (green) and iNOS (red) (FIG. 8A) and CD 11b (green) and iNOS (red) (FIG. 8B) was performed.

[1] = system: neurons (NeuN-positive cells); test: TUNEL/NeuN neuronal apoptosis in vivo in the cortex of Aβ-microinjected mice; settings: 1 μg oligonucleotide 24 h before Aβ; 24 h after final microinjection
N-SMase [2] = biological target: T1, N-SMase (Homo sapiens, UniProt Q9NY59); test: Assay of N-SMase activity in primary human neurons; type: cell-based
T1 construct: endogenous in cells; host or cells: primary human neurons
T1 sequence (Q9NY59 1-655): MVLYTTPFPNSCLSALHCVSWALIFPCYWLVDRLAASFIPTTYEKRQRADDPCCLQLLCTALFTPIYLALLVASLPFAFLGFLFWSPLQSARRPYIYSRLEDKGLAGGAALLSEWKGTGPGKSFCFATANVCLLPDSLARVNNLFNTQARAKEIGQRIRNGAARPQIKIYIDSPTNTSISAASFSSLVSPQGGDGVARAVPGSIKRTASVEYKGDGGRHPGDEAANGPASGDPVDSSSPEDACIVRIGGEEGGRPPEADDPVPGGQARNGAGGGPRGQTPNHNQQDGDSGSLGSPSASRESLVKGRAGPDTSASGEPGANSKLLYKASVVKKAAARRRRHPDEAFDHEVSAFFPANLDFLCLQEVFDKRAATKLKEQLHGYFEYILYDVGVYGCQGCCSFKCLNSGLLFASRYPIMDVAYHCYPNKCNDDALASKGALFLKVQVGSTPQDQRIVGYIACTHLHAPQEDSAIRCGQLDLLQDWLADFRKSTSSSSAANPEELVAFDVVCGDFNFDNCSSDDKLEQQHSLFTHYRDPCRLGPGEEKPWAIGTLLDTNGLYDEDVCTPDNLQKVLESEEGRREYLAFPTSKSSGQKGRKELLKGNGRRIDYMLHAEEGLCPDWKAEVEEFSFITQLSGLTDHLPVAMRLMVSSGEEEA
Protocol: as §1
In FIGS. 3A-3E, primary human astrocytes seeded in inserts were stimulated by the combination of Aβ and IL-Iβ as described above. After 24 h, media were removed and inserts were washed and placed on neurons that were pretreated with PTIO for 30 min. In FIG. 3A, after 1 h, activity of N-SMase was measured in total cell extracts of neurons as described above. After 18 h, neuronal viability was examined by the metabolism of MTT (FIG. 3B) and the release of LDH (FIG. 3C). Values obtained from the control group served as 100%, and data obtained in other groups were calculated as percent of control accordingly. Results are mean+S.D. of three different experiments. ^ap<0.001 vs control; ^bp<0.001 vs activated astrocytes. Primary human neurons were treated with 25 μM DETA-NONOate (a NO donor) and at different time points of treatment, activities of N-SMase (FIG. 3D) and A-SMase (FIG. 3E) were monitored. ^ap<0.001 vs control (0 h).

primary human neurons [3] = test: MTT metabolism of neurons in astrocyte-neuron trans-well; type: cell-based
Protocol: (§3) Primary human astrocytes were grown to confluency on inserts. After 24 h of stimulation by the combination of Aβ (1 μM) and IL-Iβ (10 ng/ml), inserts were washed thrice with HBSS and then placed onto the wells containing primary human neurons. Therefore, in this trans-well model, although neurons and astrocytes face each other, they are separable and the effect of soluble factors released from activated astrocytes on neurons can be studied allowing analysis of neuronal and glial populations separately.
Mitochondrial activity was measured with the 3-(4,5-dimethylthiazol-2-yl)-2,5-diphenyltetrazolium bromide (MTT) assay (Sigma). The cells were grown on 24-well culture plates with 500 μl of medium and treated with various reagents according to the experimental design. At the end of the treatment period, 300 μl of culture medium were removed from each well, and 20 μl of MTT solution (5 mg/ml) were added and incubated for 1 h.
(§4) Primary human neurons were incubated with antisense (ASO) and scrambled oligonucleotides (ScO) against N-SMase (A) and A-SMase (FIG. 2B). After 48 h, neurons were analyzed for protein expression of N-SMase and A-SMase. In FIG. 2C, primary human astrocytes seeded in inserts were stimulated by the combination of Aβ and IL-1β as described above. […] After 6 h of treatment with activated astrocytes, apoptotic events in neurons were detected by TUNEL. In FIG. 2D, TUNEL-positive cells were counted manually in four different images of each of three coverslips by three individuals blinded to the experiment. […] Values obtained from the control group served as 100%, and data obtained in other groups were calculated as percent of control accordingly. […]
In FIGS. 3A-3E, primary human astrocytes seeded in inserts were stimulated by the combination of Aβ and IL-Iβ as described above. […] In FIG. 3A, after 1 h, activity of N-SMase was measured in total cell extracts of neurons as described above. […] Values obtained from the control group served as 100%, and data obtained in other groups were calculated as percent of control accordingly.

primary human neurons [4] = test: LDH release from neurons in astrocyte-neuron trans-well; type: cell-based
Protocol: as §3
The activity of lactate dehydrogenase (LDH) was measured using the direct spectrophotometric assay using an assay kit from Sigma.
as §4, with “experiment. In FIG. 2E, after 18 h of stimulation, cell viability was examined by the metabolism of MTT and the release of LDH.” for “experiment.”
In FIGS. 3A-3E, primary human astrocytes seeded in inserts were stimulated by the combination of Aβ and IL-Iβ as described above. […] In FIG. 3A, after 1 h, activity of N-SMase was measured in total cell extracts of neurons as described above. […] Values obtained from the control group served as 100%, and data obtained in other groups were calculated as percent of control accordingly. […] Primary human neurons were treated with 25 μM DETA-NONOate (a NO donor) and at different time points of treatment, activities of N-SMase (FIG. 3D) and A-SMase (FIG. 3E) were monitored. ^ap<0.001 vs control (0 h).

primary human astrocytes = test: GFAP and iNOS double-labeling of primary human astrocytes stimulated with Aβ peptides; type: cell-based; settings: peptide stimulation for 24 h
Protocol: In FIG. 5A, primary astrocytes were stimulated with fibrillar Aβ1-42, oligomeric Aβ1-42 and reverse peptide Aβ42-1 for 24 h followed by double-labeling of GFAP and iNOS. In FIG. 5B, primary human astrocytes seeded in inserts were stimulated with a combination of I μM of oligomeric Aβ1-42 and 10 ng/ml of IL-Iβ in serum free media. […] After 6 h, neuronal apoptosis was monitored by TUNEL. In FIG. 5C, TUNEL-positive cells were counted manually in four different images of each of three coverslips by three individuals blinded to the experiment. Values obtained from the control group (1) served as 100%, and data obtained from other three groups i.e. the oligomeric Aβ-activated astrocytes (OAA) group (2), the ASO-OAA group (3), and the ScO-OAA group (4) was calculated as percent of control accordingly. Results are mean+S.D. of three different experiments. ^ap<0.001 vs control; ^bp<0.001 vs OAA.

primary human astroglia = test: NO synthesis (nitrite, Griess reagent) in primary human astroglia; type: cell-based; settings: astroglia preincubated 30 min with different concentrations of chemical inhibitor; nitrite after 24 h
Protocol: Synthesis of NO was determined by assay of culture supernatants for nitrite, a stable reaction product of NO with molecular oxygen, using Griess reagent as described.
After 24 h of stimulation, the concentration of nitrite was measured in supernatants (FIG. 4A) by Griess reagent. […] Cells were treated with ASO/ScO for 40 h followed by stimulation with the combination of fibrillar Aβ and IL-Iβ as above. After 6 h, the expression of iNOS mRNA was analyzed by both semi-quantitative RT-PCR (C) and quantitative real-time PCR (FIG. 4D). The expression of TNF-a, IL-6 and IL-Iβ mRNAs were analyzed by semi-quantitative RT-PCR (FIG. 4E). Results are mean±SD of three different experiments. ^ap<0.001 vs control; ^bp<0.001 vs (Aβ+IL-Iβ).

NF-κB = test: EMSA of NF-κB DNA-binding activity in primary human astroglia; type: cell-based; settings: chemical inhibitor, different concentrations, 30 min preincubation; 1 h of stimulation
N-SMase [5] = test: N-SMase activity in vivo in the cortex after microinjection; parameters: species or system C57/BL6 mice; settings: pre-microinjection of 1 μg oligonucleotide 24 h before 1 μg fibrillar Aβ1-42
Protocol: as §1, §2

[6] = neurons pretreated with PTIO for 30 min, after 18 h
[7] = neurons pretreated with oligonucleotide, 18 h of stimulation

## 5′-CACGCGTCCGACGCCGCACGA-3′ (DNA CACGCGTCCGACGCCGCACGA; chemistry not given here) [mN-SMase ScO]
A-SMase
  activity of A-SMase in fibrillar Aβ-microinjected cortex: did not influence
iNOS, GFAP and CD11b
  expression of iNOS, GFAP and CD11b in vivo in the cortex of Aβ-microinjected mice: had no effect
[1]
  Aβ-induced apoptotic death in vivo in the cortex (TUNEL/NeuN): did not ameliorate

## NCCN(CCN)/[N+]([O-])=N/O [DETA-NONOate]
N-SMase [2]; primary human neurons, 25 μM, different time points
  activation of N-SMase by NO donor alone: markedly induced

## CC1(C)N([O])C(c2ccccc2)=[N+]([O-])C1(C)C [PTIO]
Primary human neurons [3]; [6]
  ability of activated astrocytes to decrease MTT metabolism: reduced the ability
Primary human neurons [4]; [6]
  ability of activated astrocytes to increase the release of LDH: reduced the ability
N-SMase [2]; neurons pretreated with PTIO for 30 min, measured after 1 h
  ability of activated astrocytes to induce the activation of N-SMase: reduced the ability

## oligomeric Aβ: Aβ1-42 prepared after incubation at 37° C. for 2 days
Primary human astrocytes
  astroglial iNOS protein and GFAP: also induced iNOS and upregulated GFAP

## 5′- CACGCGTCCGACGCCGCACGA -3′ (DNA, all phosphorothioate, methylation of C not given here) [ScO against N-SMase, ID; NO.: 13]
Primary human neurons [3]; [7]
  activated astroglia-mediated loss of MTT metabolism: showed no effect
Primary human neurons [4]; [7]
  LDH release from neurons: showed no effect

## O=C(/C=C/c1ccc(/C=C/C(=O)Nc2ccc(C3=NCCN3)cc2)cc1)Nc1ccc(C2=NCCN2)cc1 [GW4869]
N-SMase [2]; activated astroglia-insulted human neurons, chemical inhibitors
  activity of N-SMase: strongly suppressed
Primary human astroglia
  (Aβ+IL-1β)-induced production of NO: markedly suppressed
NF-κB
  (Aβ+IL-1β)-induced DNA-binding activity of NF-κB: markedly suppressed

## 5′-CAGCGAGCCGGTCCACCAGCC-3′ (antisense CAGCGAGCCGGTCCACCAGCC; chemistry not given here) [mN-SMase ASO]
N-SMase [5]
  Aβ1-42-induced activation of N-SMase in vivo in the cortex: capable of suppressing
A-SMase
  activity of A-SMase in fibrillar Aβ-microinjected cortex: did not influence
iNOS, GFAP and CD11b
  expression of iNOS, GFAP and CD11b in vivo in the cortex of Aβ-microinjected mice: dramatically reduced
[1]
  Aβ-induced apoptotic death in vivo in the cortex (TUNEL/NeuN): blocked
